Laboratory results taken from patent publication US20130172414A1, “PHARMACEUTICAL COMPOSITION COMPRISING LEVOCARNITINE AND DOBESILATE” (TIANJIN NANKAI SHARE PHARMACEUTICAL SCIENCE & TECHNOLOGY …, priority 2010, published 2013).

How the values were obtained:
[1] = Mice acute toxicity test (Example 7); conditions: mouse, in vivo
Source text: (§1) Toxicity Test According to the methods described in literatures (“Guiding principles for acute toxicity test of a chemical drug”, No. [H]GPT1-1, CENTER FOR DRUG EVALUATION, SFDA; Bojun Yuan et. al., “The Preclinical Safety Evaluation and Practice of New Drug”, Military Medical Science Press, 1997: 23-36[…] Bojun Yuan et. al., “Methods and Techniques for Drug ToxicologicalTest”, Chemical Industry Press, 2008: 200-210), the preparation of levocamitine and calcium dobesilate obtained from example 2 was tested for mice acute toxicity.

[2] = system: adenine-induced mice renal failure model; assay: Pharmacodynamic test, chronic renal failure model (Example 5); format: in vivo, SPF grade Kunming mice; conditions: for Water content of renal tissue / blood urea nitrogen (BUN) / body weight after 4 weeks / renal index / serum creatinine (Scr): 350 mg/kg once per day for 4 weeks, n=10; for values of Scr and BUN as compared with the renal failure group: 350 mg/kg, 4 weeks
Description: Based on intergroup consistency principle, SPF grade Kunming mice (with a body weight of about 20 to 22 g, half male and half female) were randomly divided into 5 groups (n=10) with one of them as the control group. Except for control group, 300 mg/kg (20 ml/kg·d) of adenine was administrated given to mice once per day for successive 3 days by gavage, thereby to obtain adenine-induced mice renal failure model as described in the references (see for example Pingdong Zheng et. al, “The establishment of chronic renal failure animal model with adenine, Chinese Journal of Nephrology, 1989, 5(4): 342-344; Deyu Guo et. al., “The establishment of mice model with chronic renal insufficiency”, CHINESE JOURNAL OF LABORATORY ANIMAL SCIENCE, 2001, 11(3): 142-145; and Shuling Sun et. al, “The traditional Chinese medicinal intervention and pathological observations in mice chronic renal failure model”, ZHEJIANG JOURNAL OF INTEGRATED TRADITIONAL CHINESE AND WESTERN MEDICINE, 2002, 12(4): 221-222).
Thereafter, except for the control group, based on intergroup consistency principle, the remaining 4 groups were redivided randomly into 4 groups, renal failure group, levocarnitine (350 mg/kg) group, calcium dobesilate (350 mg/kg) group, as well as levocarnitine and calcium dobesilate group (350 mg/kg) (wherein the ratio of levocamitine and calcium dobesilate is 1:1). Except for the renal failure group, mice of each group were administrated at the given dosage once per day for successive 4 weeks. Then the data for the mice of each group such as body weight, blood urea nitrogen (BUN), serum creatinine (Scr), renal index and water content of renal tissue were determined.

ischemic/reperfused rat = conditions: cited from earlier work
[3] = system: rats in chronic renal failure model; conditions: cited from earlier work
mice = assay: Mice acute toxicity test (Example 7); conditions: mice acute toxicity
Source text: as §1

Row | Compound | LD50 [1] [mg/kg] | Water content of renal tissue [2] [%] | blood urea nitrogen (BUN) [2] [mmol/L] | body weight after 4 weeks [2] [g] | renal index [2] | serum creatinine (Scr) [2] [µmol/L] | values of Scr and BUN as compared with the renal failure group [2] | content of malonaldehyde (MDA) in renal tissue (ischemic/reperfused rat) | content of reduced glutathione (GSH) (ischemic/reperfused rat) | serum creatinine (Scr) and blood urea nitrogen (BUN) (ischemic/reperfused rat) | content of thromboxane Az in the homogenate of renal cortex [3] | level of Scr and BUN [3] | LD50 (mice) [mg/kg]
1 | C[N+](C)(C)C[C@H](O)CC(=O)[O-] [Levocarnitine, (R)-3-carboxy-2-hydroxy-N,N,N-trimethyl-1-propanaminium hydroxide] | 19200 | 76.0 ± 2.0 | 9.7 ± 5.8 | 32.3 ± 5.3 | 7.0 ± 1.3 | 21.6 ± 11.8 | decreased | reduce | increase | can reduce |  |  | 
2 | O=S(=O)([O-])c1cc(O)ccc1O.O=S(=O)([O-])c1cc(O)ccc1O.[Ca+2] [Calcium dobesilate, calcium dobesilate] |  | 75.9 ± 1.8 | 11.8 ± 7.0 | 31.6 ± 4.6 | 7.2 ± 0.7 | 10.0 ± 9.2 | decreased |  |  |  | reduce notably | decreasing | 10600
